In this assay the target is T1, CRD DC-SIGN (carbohydrate recognition domain of DC-SIGN, 15N labelled) (Homo sapiens, UniProt Q9NNX6).
T1 sequence (Q9NNX6 250-404 limits assumed): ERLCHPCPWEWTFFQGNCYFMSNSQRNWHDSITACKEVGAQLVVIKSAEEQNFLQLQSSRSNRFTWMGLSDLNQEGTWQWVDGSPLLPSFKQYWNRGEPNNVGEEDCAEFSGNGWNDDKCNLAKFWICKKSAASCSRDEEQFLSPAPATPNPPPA
The assay is described as follows: 1H, […]-HSQC NMR titration. The assay is classed as binding.

The structures appear in SMILES notation.

As a reminder, the Kd is the equilibrium constant for the complex coming apart. A higher Kd goes with weaker binding. With `NCCCO[C@H]1O[C@H](CO)[C@@H](O)[C@H](O)[C@@H]1O[C@H]1O[C@H](CO)[C@@H](O)[C@H](O)[C@@H]1O[C@H]1O[C@H](CO)[C@@H](O)[C@H](O[C@H]2O[C@H](CO)[C@@H](O)[C@H](O)[C@@H]2O[C@H]2O[C@H](CO)[C@@H](O)[C@H](O)[C@@H]2O)[C@@H]1O` [compound 29, pentasaccharide 29], the Kd is ~600 µM. With `NCCCO[C@H]1O[C@H](CO)[C@@H](O)[C@H](O)[C@@H]1O[C@H]1O[C@H](CO)[C@@H](O)[C@H](O)[C@@H]1O[C@H]1O[C@H](CO)[C@@H](O)[C@H](O)[C@@H]1O[C@H]1O[C@H](CO)[C@@H](O)[C@H](O[C@H]2O[C@H](CO)[C@@H](O)[C@H](O)[C@@H]2O[C@H]2O[C@H](CO)[C@@H](O)[C@H](O)[C@@H]2O)[C@@H]1O` [compound 30, hexasaccharide 30], the Kd was ~1100 µM.

Values taken from publication PMC10382935 (The Cell Surface, 2023).
